Data from patent US4404201A, “Cephalosporins” (Warner-Lambert Company, priority 1981, dated 1983).

Key:
Assay type in all cases: cell-based
E. Coli Brig = assay: Minimal Inhibitory Concentration, E. Coli Brig; details: Escherichia coli, sodium salt
Serr. Mar. IMM 16 = assay: Minimal Inhibitory Concentration, Serr. Mar. IMM 16; details: sodium salt
Staph S 18713 = assay: Minimal Inhibitory Concentration, Staph S 18713; details: sodium salt
E. Coli Vogel = assay: Minimal Inhibitory Concentration, E. Coli Vogel; details: Escherichia coli, sodium salt
Staph UC76 = assay: Minimal Inhibitory Concentration, Staph UC76; details: sodium salt
Strep. fec. MGH 2 = assay: Minimal Inhibitory Concentration, Strep. fec. MGH 2; details: sodium salt
Pseudomonas BRK 12-4-4 = assay: Minimal Inhibitory Concentration, Pseudomonas BRK 12-4-4; details: BRK1244, sodium salt
Prot Vulg. = assay: Minimal Inhibitory Concentration, Prot Vulg.; details: sodium salt
Pseudomonas #28 = assay: Minimal Inhibitory Concentration, Pseudomonas #28; details: sodium salt
Pseudomonas UI 18 = assay: Minimal Inhibitory Concentration, Pseudomonas UI 18; details: UI18, sodium salt
Klebs. Pneum. MGH 2 = assay: Minimal Inhibitory Concentration, Klebs. Pneum. MGH 2; details: sodium salt
Entero Cloac. IM 11 = assay: Minimal Inhibitory Concentration, Entero Cloac. IM 11; details: sodium salt

SMILES	MIC (E. Coli Brig)	MIC (Serr. Mar. IMM 16)	MIC (Staph S 18713)	MIC (E. Coli Vogel)	MIC (Staph UC76)	MIC (Strep. fec. MGH 2)	MIC (Pseudomonas BRK 12-4-4)	MIC (Prot Vulg.)	MIC (Pseudomonas #28)	MIC (Pseudomonas UI 18)	MIC (Klebs. Pneum. MGH 2)	MIC (Entero Cloac. IM 11)
CC(=O)N[C@@H](C)C(=O)Nc1ccc2c(=O)c(C(=O)N[C@@H](C(=O)NC3C(=O)N4C(C(=O)O)=C(CSc5nnnn5CS(=O)(=O)O)CSC34)c3ccccc3)c[nH]c2c1 (stereo partly drawn) [Example 1, N-[7-[[L-2-(Acetylamino)-1-oxopropyl]amino]-1,4-dihydro-4-oxo-3-quinolinylcarbonyl]-7-[D-2-amino-2-phenylacetamido]-3-[[(1-sulfomethyl-1H-tetrazol-5-yl)thio]methyl]-3-cephem-4-carboxylic acid]	> 50 mg/L	3.2 mg/L	12.5 mg/L	0.8 mg/L	6.3 mg/L	> 50 mg/L	6.3 mg/L	0.8 mg/L	3.1 mg/L	3.1 mg/L	0.8 mg/L	6.3 mg/L
CC(=O)N[C@@H](C)C(=O)Nc1ccc2c(=O)c(C(=O)N[C@@H](C(=O)NC3C(=O)N4C(C(=O)O)=C(CSc5nnnn5C)CSC34)c3ccc(O)cc3)c[nH]c2c1 (stereo partly drawn) [Example 2, N-[7-[[L-2-(Acetylamino)-1-oxopropyl]amino]-1,4-dihydro-4-oxo-3-quinolinylcarbonyl]-7-[D-2-amino-2-(4-hydroxyphenyl)acetamido]-3-[[(1-methyl-1H-tetrazol-5-yl)thio]methyl]-3-cephem-4-carboxylic acid]	> 50 mg/L	0.3 mg/L	6.3 mg/L	0.4 mg/L	3.1 mg/L	25 mg/L	3.1 mg/L	3.1 mg/L	3.1 mg/L	6.3 mg/L	0.4 mg/L	3.1 mg/L
CC(=O)N[C@@H](C)C(=O)Nc1ccc2c(=O)c(C(=O)N[C@@H](C(=O)NC3C(=O)N4C(C(=O)O)=C(COC(C)=O)CSC34)c3ccc(O)cc3)c[nH]c2c1 (stereo partly drawn) [Example 3, N-[7-[[L-2-(Acetylamino)-1-oxopropyl]amino]-1,4-dihydro-4-oxo-3-quinolinylcarbonyl]-7-[D-2-amino-2-(4-hydroxyphenyl)acetamido]-3-acetoxymethyl-3-cephem-4-carboxylic acid]	12.5 mg/L	50 mg/L	6.3 mg/L	1.6 mg/L	3.1 mg/L	25 mg/L	6.3 mg/L	6.3 mg/L	3.1 mg/L	3.1 mg/L	1.6 mg/L	12.5 mg/L
CC(=O)N[C@@H](CCC(N)=O)C(=O)Nc1ccc2c(=O)c(C(=O)N[C@@H](C(=O)NC3C(=O)N4C(C(=O)O)=C(COC(C)=O)CSC34)c3ccc(O)cc3)c[nH]c2c1 (stereo partly drawn) [Example 4, N-[7-[[L-2-(Acetylamino)-5-amino-1,5-dioxopentyl]amino]-1,4-dihydro-4-oxo-3-quinolinylcarbonyl]-7-[D-2-amino-2-(4-hydroxyphenyl)acetamido]-3-acetoxymethyl-3-cephem-4-carboxylic acid]	> 50 mg/L	> 50 mg/L	6.3 mg/L	0.8 mg/L	3.1 mg/L	25 mg/L	6.3 mg/L	6.3 mg/L	3.1 mg/L	12.5 mg/L	3.1 mg/L	12.5 mg/L
CC(=O)N[C@@H](CCC(N)=O)C(=O)Nc1ccc2c(=O)c(C(=O)N[C@@H](C(=O)NC3C(=O)N4C(C(=O)O)=C(CSc5nnnn5C)CSC34)c3ccc(O)cc3)c[nH]c2c1 (stereo partly drawn) [Example 5, N-[7-[[L-2-(Acetylamino)-5-amino-1,5-dioxopentyl]amino]-1,4-dihydro-4-oxo-3-quinolinylcarbonyl]-7-[D-2-amino-2-(4-hydroxyphenyl)acetamido]-3-[[(1-methyl-1H-tetrazol-5-yl)thio]methyl]-3-cephem-4-carboxylic acid]	> 50 mg/L	6.3 mg/L	6.3 mg/L	0.4 mg/L	3.1 mg/L	25 mg/L	6.3 mg/L	3.1 mg/L	3.1 mg/L	6.3 mg/L	0.8 mg/L	3.1 mg/L
Cn1nnnc1SCC1=C(C(=O)O)N2C(=O)C(NC(=O)[C@H](NC(=O)c3c[nH]c4cc(NC(=O)[C@@H]5CCC(=O)N5)ccc4c3=O)c3ccccc3)C2SC1 (stereo partly drawn) [Example 6, N-[1,4-Dihydro-4-oxo-7-[[(L-5-oxo-2-pyrrolidinyl)carbonyl]amino]-3-quinolinylcarbonyl]-7-[D-2-amino-2-phenylacetamido]-3-[[(1-methyl-1H-tetrazol-5-yl)thio]methyl]-3-cephem-4-carboxylic acid]	6.3 mg/L	25 mg/L	3.1 mg/L	0.8 mg/L	0.8 mg/L	–	12.5 mg/L	6.3 mg/L	6.3 mg/L	12.5 mg/L	1.6 mg/L	6.3 mg/L
CC(=O)N[C@@H](C)C(=O)Nc1ccc2[nH]cc(C(=O)N[C@@H](C(=O)NC3C(=O)N4C(C(=O)O)=C(CSc5nnnn5C)CSC34)c3ccccc3)c(=O)c2c1 (stereo partly drawn) [Example 7, N-[6-[[L-2-(Acetylamino)-1-oxopropyl]amino]-1,4-dihydro-4-oxo-3-quinolinylcarbonyl]-7-[D-2-amino-2-phenylacetamido]-3-[[(1-methyl-1H-tetrazol-5-yl)thio]methyl]-3-cephem-4-carboxylic acid]	12.5 mg/L	25 mg/L	6.3 mg/L	1.6 mg/L	1.6 mg/L	–	12.5 mg/L	3.1 mg/L	6.3 mg/L	6.3 mg/L	3.1 mg/L	12.5 mg/L
CC(=O)N[C@@H](C)C(=O)Nc1ccc2[nH]c(=O)c(C(=O)N[C@@H](C(=O)NC3C(=O)N4C(C(=O)O)=C(COC(C)=O)CSC34)c3ccc(O)cc3)cc2c1 (stereo partly drawn) [Example 8, N-[6-[[L-2-(Acetylamino)-1-oxopropyl]amino]-1,2-dihydro-2-oxo-3-quinolinylcarbonyl]-7-[D-2-amino-2-(4-hydroxyphenyl)acetamido]-3-acetoxymethyl-3-cephem-4-carboxylic acid]	50 mg/L	> 50 mg/L	6.3 mg/L	6.3 mg/L	3.1 mg/L	–	6.3 mg/L	25 mg/L	3.1 mg/L	3.1 mg/L	25 mg/L	25 mg/L
